Assay results from patent US20120263784A1, “EMERGENCY CONTRACEPTIVE” (LYKA LABS LIMITED, priority 2009, published 2012).

Assays:
in vivo [1] = conditions: rat, po, 10 ug
Protocol: Size of the drug particles and liposomes in all the formulations was kept between 10-15 μm, as the particles with 10-20 μm are all deposited in the nasal cavity, whereas particles smaller than 1 μm pass with inspired air into the lungs.
Suspension containing 10-μg levonorgestrel was administered intranasally in three different group of rats.
Blood samples were collected at specific time points and plasma levonorgestrel concentrations were estimated. The drug plasma concentration at each sampling time point were plotted against time in hr.
The mucociliary clearance under normal conditions rapidly clears the applied material since there is a little time of contact between the drug and the mucosa. […] CS acts by opening tight junction between epithelial cells.

in vivo [2] = conditions: rat, po
Protocol: Similarly, 10-μg of LN suspension was administered orally. Blood samples were collected at specific time points and plasma LN concentrations were estimated. The drug plasma concentration at each sampling time points were plotted against time in hr.
Various pharmacokinetic parameters (Cmax, Tmax and t1/2) were determined from drug plasma concentration-time curve. The area under the plasma level curve was calculated by the trapezoidal rule.

## C#C[C@]1(O)CC[C@H]2[C@@H]3CCC4=CC(=O)CC[C@@H]4[C@H]3CC[C@@]21CC [levonorgestrel]
In vivo [1]
  Cmax: 14.4 ng/mL
  Tmax: 2.1 h
  half-life: 16.9 h
In vivo [2]
  Cmax: 14.4 ng/mL
  half-life: 16.9 h
